Legend:
[1] = in vitro; conditions: human
[2] = test system: HL-60; assay: HL-60 differentiation potency; type: cell-based; conditions: Homo sapiens

IC50 [1] [µM] | EC50 [2] [µM] | SMILES | IC50 ([1]; HL-60 cells) [µM]
> 20 | 20.5 | C[C@H]1[C@@H](OC[C@H]2CCC(C(=O)O)CO2)O[C@@H]2O[C@@]3(C)CC[C@H]4[C@H](C)CC[C@@H]1[C@@]24OO3 (stereo partly drawn) [Compound 212, (6R)-6-((((3R,5aS,6R,8aS, 9R,10S,12R, 12aR)-3,6,9-trimethyldeca-hydro-12H-3,12-epoxy[1,2]dioxepino[4,3-i]isochromen-10-yl)oxy)methyl) tetrahydro-2H-pyran-3-carboxylic acid] | –
> 20 | 0.0635 | C[C@H]1[C@@H](Oc2ccc(CC(=O)N[C@H](C(=O)O)C3CC3)cc2)O[C@@H]2O[C@@]3(C)CC[C@H]4[C@H](C)CC[C@@H]1[C@@]24OO3 [Compound 301, (S)-2-cyclopropyl-2-(2-(4-(((3R,5aS,6R,8aS, 9R,10S,12R, 12aR)-3,6,9-trimethyldeca-hydro-12H-3,12-epoxy[1,2]dioxepino[4,3-i]isochromen-10-yl)oxy)phenyl)acetamido) acetic acid] | –
> 20 | 0.242 | C[C@H]1[C@@H](O[C@H]2CC[C@@H](C(=O)N[C@H](C(=O)O)C3CCC3)CC2)O[C@@H]2O[C@@]3(C)CC[C@H]4[C@H](C)CC[C@@H]1[C@@]24OO3 [Compound 252, (S)-2-cyclobutyl-2-((1R,4R)-4-(((3R,5aS,6R,8aS, 9R,10S,12R, 12aR)-3,6,9-trimethyldeca-hydro-12H-3,12-epoxy[1,2]dioxepino[4,3-i]isochromen-10-yl)oxy)cyclohexane-1-carboxamido) acetic acid] | –
9.61 | 0.124 | C[C@H]1[C@@H](Oc2ccc(OC(C)(C)C(=O)O)cc2)O[C@@H]2O[C@@]3(C)CC[C@H]4[C@H](C)CC[C@@H]1[C@@]24OO3 [Compound 221, 2-methyl-2-(4-(((3R,5aS,6R,8aS, 9R,10S,12R, 12aR)-3,6,9-trimethyldeca-hydro-12H-3,12-epoxy[1,2]dioxepino[4,3-i]isochromen-10-yl)oxy)phenoxy) propanoic acid] | –
17.7 | 0.0317 | C[C@H]1[C@@H](OC[C@H]2CC[C@@H](C(=O)NCC3(C(=O)O)CCC3)CC2)O[C@@H]2O[C@@]3(C)CC[C@H]4[C@H](C)CC[C@@H]1[C@@]24OO3 [Compound 297, 1-(((1R,4s)-4-((((3R,5aS,6R,8aS, 9R,10S,12R, 12aR)-3,6,9-trimethyldeca-hydro-12H-3,12-epoxy[1,2]dioxepino[4,3-i]isochromen-10-yl)oxy)methyl)cyclohexane-1-carboxamido)methyl) cyclobutane-1-carboxylic acid] | –
0.69 | 0.0133 | CC(C(=O)N[C@H]1CC[C@@H](C(=O)O)C1)c1ccc(O[C@H]2O[C@@H]3O[C@@]4(C)CC[C@H]5[C@H](C)CC[C@@H]([C@H]2C)[C@@]35OO4)c(F)c1 (stereo partly drawn) [Compound 306, (1R,3S)-3-(2-(3-fluoro-4-(((3R,5aS,6R,8aS, 9R,10S,12R, 12aR)-3,6,9-trimethyldeca-hydro-12H-3,12-epoxy[1,2]dioxepino[4,3-i]isochromen-10-yl)oxy)phenyl)propanamido) cyclopentane-1-carboxylic acid] | –
0.22 | 0.0537 | C[C@H]1[C@@H](Oc2ccc3cc(C(=O)O)ccc3c2)O[C@@H]2O[C@@]3(C)CC[C@H]4[C@H](C)CC[C@@H]1[C@@]24OO3 [Compound 214, 6-(((3R,5aS,6R,8aS, 9R,10S,12R, 12aR)-3,6,9-trimethyldeca-hydro-12H-3,12-epoxy[1,2]dioxepino[4,3-i]isochromen-10-yl)oxy)-2-naphthoic acid] | –
> 20 | 0.237 | C[C@H]1[C@@H](OCC23[C@H]4[C@H]5[C@@H]2[C@H]2[C@@H]3[C@@H]4C52C(=O)O)O[C@@H]2O[C@@]3(C)CC[C@H]4[C@H](C)CC[C@@H]1[C@@]24OO3 (stereo partly drawn) [Compound 253, (2S,3S,5S,6S,7S, 8S)-4-((((3R,5aS,6R,8aS, 9R,10S,12R, 12aR)-3,6,9-trimethyldeca-hydro-12H-3,12-epoxy[1,2]dioxepino[4,3-i]isochromen-10-yl)oxy)methyl) cubane-1-carboxylic acid] | –
19 | 0.134 | C[C@H]1[C@@H](OCC2(F)CCCC(C(=O)O)C2)O[C@@H]2O[C@@]3(C)CC[C@H]4[C@H](C)CC[C@@H]1[C@@]24OO3 (stereo partly drawn) [Compound 222, 3-fluoro-3-((((3R,5aS,6R,8aS, 9R,10S,12R, 12aR)-3,6,9-trimethyldeca-hydro-12H-3,12-epoxy[1,2]dioxepino[4,3-i]isochromen-10-yl)oxy)methyl) cyclohexane-1-carboxylic acid] | –
6.91 | 0.0713 | C[C@H]1[C@@H](Oc2c(F)cc(OCC(=O)O)cc2F)O[C@@H]2O[C@@]3(C)CC[C@H]4[C@H](C)CC[C@@H]1[C@@]24OO3 [Compound 238, 2-(3,5-difluoro-4-(((3R,5aS,6R,8aS, 9R,10S,12R, 12aR)-3,6,9-trimethyldeca-hydro-12H-3,12-epoxy[1,2]dioxepino[4,3-i]isochromen-10-yl)oxy)phenoxy) acetic acid] | –
3.5 | 0.0672 | C[C@H]1[C@@H](Oc2ccc(C3CC3C(=O)O)cc2)O[C@@H]2O[C@@]3(C)CC[C@H]4[C@H](C)CC[C@@H]1[C@@]24OO3 (stereo partly drawn) [Compound 192, 2-(4-(((3R,5aS,6R,8aS, 9R,10S,12R, 12aR)-3,6,9-trimethyldeca-hydro-12H-3,12-epoxy[1,2]dioxepino[4,3-i]isochromen-10-yl)oxy)phenyl) cyclopropane-1-carboxylic acid] | –
> 20 | 17.5 | C[C@H]1[C@@H](OCC2CCN(C(=O)C(=O)O)CC2)O[C@@H]2O[C@@]3(C)CC[C@H]4[C@H](C)CC[C@@H]1[C@@]24OO3 [Compound 203, 2-oxo-2-(4-((((3R,5aS,6R,8aS, 9R,10S,12R, 12aR)-3,6,9-trimethyldeca-hydro-12H-3,12-epoxy[1,2]dioxepino[4,3-i]isochromen-10-yl)oxy)methyl)piperidin-1-yl)acetic acid] | –
1.27 | 0.112 | C[C@H]1[C@@H](Oc2ccc(C(=O)N[C@H](C(=O)O)c3ccccc3)cc2)O[C@@H]2O[C@@]3(C)CC[C@H]4[C@H](C)CC[C@@H]1[C@@]24OO3 [Compound 234, (S)-2-phenyl-2-(4-(((3R,5aS,6R,8aS, 9R,10S,12R, 12aR)-3,6,9-trimethyldeca-hydro-12H-3,12-epoxy[1,2]dioxepino[4,3-i]isochromen-10-yl)oxy)benzamido) acetic acid] | –
> 20 | 0.422 | C[C@H]1[C@H](OCC23[C@H]4[C@H]5[C@@H]2[C@H]2[C@@H]3[C@@H]4C52C(=O)O)O[C@@H]2O[C@@]3(C)CC[C@H]4[C@H](C)CC[C@@H]1[C@@]24OO3 (stereo partly drawn) [Compound 260, (2R,3R,5R,6R,7R, 8R)-4-((((3R,5aS,6R,8aS, 9R,10R,12R, 12aR)-3,6,9-trimethyldeca-hydro-12H-3,12-epoxy[1,2]dioxepino[4,3-i]isochromen-10-yl)oxy)methyl) cubane-1-carboxylic acid] | –

SMILES | IC50 [1] [µM] | EC50 [2] [µM] | IC50 ([1]; HL-60 cells) [µM]
C[C@H]1[C@@H](O[C@H]2CC[C@@H](C(=O)N3CC(C(=O)O)C3)CC2)O[C@@H]2O[C@@]3(C)CC[C@H]4[C@H](C)CC[C@@H]1[C@@]24OO3 [Compound 259, 1-((1R,4s)-4-(((3R,5aS,6R,8aS, 9R,10S,12R, 12aR)-3,6,9-trimethyldeca-hydro-12H-3,12-epoxy[1,2]dioxepino[4,3-i]isochromen-10-yl)oxy)cyclo-hexane-1-carbonyl) azetidine-3-carboxylic acid] | – | 0.172 | 10.8

— patent US20260242391A1 (priority 2023, published 2026)
